Assay results reported in patent US12502386B2, “Nitrogen-containing heterocyclic compound and use thereof” (SHANGHAI SHIJIANG BIOTECHNOLOGY CO., LTD, priority 2022, dated 2025).
Like-named read-outs stand apart in the source and are kept apart here.

What was measured:
Con-NCI-H82 cell = test: CellTiter-Glo cell viability, Con-NCI-H82 cell (empty-vector control); type: cell-based, human; conditions: Homo sapiens, NCI-H82, NCI-H82 transfected with empty virus vector (control), intracellular ATP, read-out: inhibitory effect on Con-NCI-H82 (IC50)
ov-NNMT NCI-H82 cell = test: CellTiter-Glo cell viability, ov-NNMT NCI-H82 cell (NNMT overexpressed); type: cell-based, human; conditions: intracellular ATP, read-out: inhibitory effect on OV-NNMT NCI-H82 (IC50)
sh-DNMT1 NCI-H82 cell = test: CellTiter-Glo cell viability, sh-DNMT1 NCI-H82 cell (DNMT1 knocked down); type: cell-based, human; conditions: Homo sapiens, NCI-H82, NCI-H82 with DNMT1 knocked down by shRNA, intracellular ATP, read-out: inhibitory effect on sh-DNMT1 NCI-H82 (IC50)
NCI-H82 = test: CellTiter-Glo cell viability, tumor cell line NCI-H82; type: cell-based; conditions: NCI-H82, 72 h; human small cell lung cancer cell; 3 days of culture; read-out: inhibitory effect on NCI-H82 (IC50)
Protocol: (§1) Cell viability was detected using the Promega CellTiter-Glo kit, cell viability was determined by directly measuring intracellular ATP content. In the experiment, the IC50 value of the compounds prepared in the Examples of the present invention on various tumor cell lines was detected.
(§2) Each tumor cell was cultured in relevant medium. After cell passage, the gradient diluted compounds prepared in the Examples of the present invention was added. After 3 days of culture, the relevant IC50 (50% inhibiting concentration) was measured. The name, source and culture conditions of each tumor cell line were as follows:
Cell line NCI-H82 (ATCC, No. HTB-175) was cultured in 10% fetal bovine serum-containing RPMI1640 medium (+P/S).

G-401 = test: CellTiter-Glo cell viability, tumor cell line G-401; type: cell-based; conditions: G-401, 72 h; human renal carcinoma Wilms cell; 3 days of culture; read-out: inhibitory effect on G-401 (IC50)
Protocol: as §1, §2
Cell line G-401 (ATCC, No. CRL-1441) was cultured in 10% fetal bovine serum-containing McCoy's 5a medium (+P/S).

MDA-MB-453 = test: CellTiter-Glo cell viability, tumor cell line MDA-MB-453; type: cell-based; conditions: Homo sapiens, MDA-MB-453, 72 h; breast cancer cell; 3 days of culture; read-out: inhibitory effect on MDA-MB-453 (IC50)
Protocol: as §1
(§3) Each tumor cell was cultured in relevant medium. After cell passage, the gradient diluted compounds prepared in the Examples of the present invention was added. After 3 days of culture, the relevant IC50 (50% inhibiting concentration) was measured. The name, source and culture conditions of each tumor cell line were as follows: […]

SW48 = test: CellTiter-Glo cell viability, tumor cell line SW48; type: cell-based; conditions: SW48, 72 h; human colon adenocarcinoma cell; 3 days of culture; read-out: inhibitory effect on SW48 (IC50)
Protocol: as §1, §2
Cell line SW48 (ATCC, No. CCL-231) was cultured in 10% fetal bovine serum-containing Leibovitz's L-15 medium (+P/S).

CFPAC-1 = test: CellTiter-Glo cell viability, tumor cell line CFPAC-1; type: cell-based; conditions: CFPAC-1, 72 h; human pancreatic cancer cell; 3 days of culture; read-out: inhibitory effect on CFPAC-1 (IC50)
Protocol: as §1, §2
Cell line CFPAC-1 (ATCC, No. CRL-1918) was cultured in 10% fetal bovine serum-containing IMDM medium (+P/S).

786-O = test: CellTiter-Glo cell viability, tumor cell line 786-O; type: cell-based; conditions: Homo sapiens, 786-0, 72 h; clear cell renal cell adenocarcinoma cell; 3 days of culture; read-out: inhibitory effect on 786-O (IC50)
Protocol: as §1, §2
Cell line 786-0 (ATCC, No. CRL-1932) was cultured in 10% fetal bovine serum-containing RPMI164B medium (+P/S).

GB-1 = test: CellTiter-Glo cell viability, tumor cell line GB-1; type: cell-based; conditions: GB-1, 72 h; human brain glioblastoma cell; 3 days of culture; read-out: inhibitory effect on GB-1 (IC50)
Protocol: as §1, §2
Cell line GB-1 (JCRB, No. IFO50489) was cultured in 10% fetal bovine serum-containing DMEM medium (+P/S).
(§4) Cell viability was detected using the Promega CellTiter-Glo kit, cell viability was determined by directly measuring intracellular ATP content. In the experiment, the IC50 value of the compounds prepared in the Examples of the present invention on various brain tumor cell lines was detected.

SF-126 = test: CellTiter-Glo cell viability, tumor cell line SF-126; type: cell-based; conditions: SF-126, 72 h, read-out: inhibitory effect on SF-126 (IC50); human glioblastoma multiforme cell; 3 days of culture
Protocol: as §1, §2
Cell line SF126 (JCRB, No. IFO50286) was cultured in 10% fetal bovine serum-containing EMEM medium (+P/S).
as §4

D341 Med = test: CellTiter-Glo cell viability, brain tumor cell line D341 Med; type: cell-based; conditions: Homo sapiens, 72 h, cerebellar medulloblastoma cell, 3 days of culture, read-out: inhibitory effect on D341 Med (IC50)
Protocol: as §4, §2
Cell line D341 Med (ATCC, No. HTB-187) was cultured in 20% fetal bovine serum-containing EMEM medium (+P/S).

Kelly = test: CellTiter-Glo cell viability, brain tumor cell line Kelly; type: cell-based; conditions: Homo sapiens, 72 h, brain neuroblastoma cell, 3 days of culture, read-out: inhibitory effect on Kelly (IC50)
Protocol: as §4, §2
Cell line Kelly (ECACC, No. 92110411) was cultured in 10% fetal bovine serum and 2 mM glutamine-containing RPMI1640 medium.

NB-1 = test: CellTiter-Glo cell viability, brain tumor cell line NB-1; type: cell-based; conditions: Homo sapiens, NB1, 72 h; brain neuroblastoma cell; 3 days of culture; read-out: inhibitory effect on NB-1 (IC50)
Protocol: as §4, §3

[1] = Homo sapiens, NCI-H82, NCI-H82 overexpressing NNMT protein

Row | SMILES | IC50 (Con-NCI-H82 cell) [nM] | IC50 (ov-NNMT NCI-H82 cell; [1]) [µM] | IC50 (sh-DNMT1 NCI-H82 cell) [µM] | IC50 (NCI-H82) [nM] | IC50 (G-401) [nM] | IC50 (MDA-MB-453) [nM] | IC50 (SW48) [nM] | IC50 (CFPAC-1) [µM] | IC50 (786-O) [µM] | IC50 (GB-1) [µM] | IC50 (SF-126) [µM] | IC50 (D341 Med) [nM] | IC50 (Kelly) [nM] | IC50 (NB-1) [nM] | IC50 (ov-NNMT NCI-H82 cell; NCI-H82 overexpressing NNMT protein) [µM]
1 | COc1ccc2c(c1OC)CN1CCc3cc4c(cc3C1=C2Cc1ccc(OC(F)(F)F)cc1)OCO4 [AB31866] | 820 | 1.86 | 3.48 | 820 | 1080 | 2320 | 1960 | 12.4 | 15.6 | 10.5 | 20.1 | 1540 | 1320 | 2190 | 
2 | COc1ccc2c(c1OC)C(C1CCCCC1)N1CCc3cc4c(cc3C1=C2)OCO4 (stereo not drawn) [AB31893] | 1120 | 4.12 | 5.68 | 1120 | 1440 | 1680 | 1850 | 10.9 | 9.72 | 15.5 | 12.3 | 1460 | 2090 | 1880 | 
3 | COc1ccc2c(c1OC)C(C1CCCC1)N1CCc3cc4c(cc3C1=C2)OCO4 (stereo not drawn) [AB31900] |  |  |  | 1080 | 1320 | 1460 | 1280 | 18.3 | 15.7 | > 30 | 20.1 | 980 | 1120 | 880 | 4.88
4 | COc1ccc2c(c1OC/C=C(\C)CCC=C(C)C)C(C(Cl)(Cl)Cl)N1CCc3cc4c(cc3C1=C2)OCO4 (stereo not drawn) [AB35405] | 920 | 2.13 | 3.86 | 920 | 880 | 1760 | 2340 | 18.3 | 13.1 | 16 | 20.3 | 760 | 3120 | 2460 | 
5 | COc1ccc2c(c1OC)C(C(Cl)(Cl)Cl)N1CCc3cc4c(cc3C1=C2CCCc1ccccc1)OCO4 (stereo not drawn) [AB35417] | 570 | 1.78 | 3.12 | 570 | 1110 | 1320 | 980 | 9.88 | 10.2 | 14.1 | 12.3 | 880 | 1240 | 2390 | 
6 | COc1ccc2c(c1OCCCCN)C(C)N1CCc3cc4c(cc3C1=C2)OCO4 (stereo not drawn) [AB35429] | 1890 | 5.32 | 5.04 | 1890 | 2020 | 2430 | 1460 | 13.4 | 12.5 | 18.4 | 15.3 | 2020 | 3160 | 3450 | 
7 | COc1ccc2c(c1OCCCBr)C(C1CCCC1)N1CCc3cc4c(cc3C1=C2)OCO4 (stereo not drawn) [AB35430] | 850 | 3.18 | 6.32 | 850 | 1320 | 960 | 1560 | 12.1 | 16.1 | 16.9 | 23.4 | 1320 | 2010 | 2550 | 
8 | COc1ccc2c(c1OCCCCl)C(C1CCCC1)N1CCc3cc4c(cc3C1=C2)OCO4 (stereo not drawn) [AB35434] | 1680 | 5.12 | 4.98 | 1680 | 2640 | 2320 | 3050 | > 30 | 22.2 | 25.7 | > 30 | 3150 | 2460 | 2980 | 
9 | COc1ccc2c(c1OC)C(C1CCCC1)N1CCc3cc4c(cc3C1=C2CCCc1ccccc1)OCO4 (stereo not drawn) [AB35436] | 1270 | 3.28 | 5.32 | 1270 | 1890 | 1010 | 1560 | 11.4 | 15.4 | > 30 | 22.1 | 1540 | 3120 | 2980 | 
10 | COc1ccc2c(c1OCCCCl)C(C(Cl)(Cl)Cl)N1CCc3cc4c(cc3C1=C2)OCO4 (stereo not drawn) [AB35441] | 1010 | 3.21 | 2.98 | 1010 | 1560 | 980 | 1220 | 12.3 | 16.5 | 24.4 | > 30 | 2320 | 3160 | 1980 | 
